In PubChem BioAssay AID1196 (NMMLSC, 2008):
The source made the active and inactive calls. No rule for the calls is given here.

These compounds were tested on prostate cell differentiation activation, dose response (assay: prostate cell differentiation inducers, concentration series – secondary assay, dose response (AID 1196)).

EC50	SMILES
8.46 µM	COc1ccc(-c2ccc(-c3noc(-c4ccccc4)n3)c(OC)n2)cc1
2.21 µM	Cc1cc(N2CCN(C)CC2)nc2ccc(NC(=O)c3ccc(Br)o3)cc12
1.16 µM	CCN1CCCC1CNC(=O)C1CCN(Cc2nc(-c3cccc(Br)c3)oc2C)CC1 (stereo not given)
2.67 µM	COc1ccccc1NC(=O)c1nc[nH]c1C(=O)Nc1ccccc1OC
2.89 µM	COc1ccc(Nc2nc(N)nc(CN3CCC(Cc4ccccc4)CC3)n2)cc1
27.8 µM (inactive)	Cn1c(=O)cc(OCC(=O)NCCCN2CCN(c3ccccc3F)CC2)c2ccccc21
6.04 µM	Cc1ccc2c(c1)-c1c(cnn1CC(=O)Nc1ccccc1N1CCN(C)CC1)CO2
2.48 µM	CCN(CC)CCNC(=O)c1cc2c(-c3ccc(Cl)cc3)nn(C)c2s1
8.92 µM	CCOc1ccccc1NC(=O)c1nc[nH]c1C(=O)Nc1ccccc1OCC
2.21 µM	N=c1n(CCN2CCCCC2)c2ccccc2n1CC(O)COc1ccccc1 (stereo not given)
2.68 µM	Cc1ccc(C)c(N2CCN(CCCNC(=O)Cn3cc4c(n3)CCCCC4)CC2)c1
20.4 µM (inactive)	CCn1c(=O)cc(SCC(=O)NCCN2CCN(Cc3ccccc3)CC2)c2ccccc21
9.05 µM	CCn1c(=O)cc(SCC(=O)NCCCN2CCN(c3ccccc3F)CC2)c2ccccc21
3.37 µM	CCN1CCN(c2cc(C)c3cc(NC(=O)c4ccc(Br)o4)ccc3n2)CC1
6.5 µM	CCCN(CCC)CCNC(=O)C1CCN(Cc2nc(-c3ccc(Cl)cc3)oc2C)CC1
0.239 µM	CCCOc1ccccc1C1CC(=O)Nc2cc3c(cc21)OCO3 (stereo not given)
17.1 µM (inactive)	O=C(NCCCN1CCN(c2cccc(Cl)c2)CC1)c1cccc(N2CCCC2=O)c1
5.27 µM	CCN1CCN(c2ncc(C(=O)Nc3cc(Cl)c(OC)cc3OC)c3ccccc23)CC1
12.5 µM (inactive)	Cc1ccccc1-c1nc(CN2CCC(C(=O)NCc3cccnc3)CC2)c(C)o1
0.218 µM	CCOC(=O)c1ccccc1NC(=O)Cn1c(-c2nonc2N)nc2ccccc21
5.53 µM	CN(C)c1ccc(CNC2CC(C)(C)NC(C)(C)C2)cc1
3.87 µM	COc1ccc2cc3cc(C(=O)Nc4ccccc4N4CCN(C)CC4)oc3nc2c1
3.44 µM	Cc1oc(-c2ccc(Cl)cc2)nc1CN1CCC(C(=O)NCCCN2CCOCC2)CC1

EC50	SMILES
9.37 µM	Cn1c(=O)cc(SCC(=O)NCCCN2CCN(c3ccccc3F)CC2)c2ccccc21
7.46 µM	Cc1ccccc1CS(=O)(=O)CCC(=O)NCCCN1CCN(c2ccccc2F)CC1
16.8 µM (inactive)	CCN1CCN(C(c2cccs2)C(C)NS(=O)(=O)c2ccc(Br)cc2)CC1 (stereo not given)
5.34 µM	Cn1nc(-c2ccc(Cl)cc2)c2cc(C(=O)NCCCN3CCOCC3)sc21
11.1 µM (inactive)	Cn1c(C(=O)NCCCN2CCN(c3cccc(Cl)c3)CC2)cc2c(=O)n(C)c3ccccc3c21
0.277 µM	CCOc1ccc(NC(=O)COc2nsnc2N2CCCCC2)cc1
5.88 µM	CCN(CC)CCNC(=O)c1ccc(N2CCCCC2)c(NS(=O)(=O)c2ccc(C)cc2)c1
1.47 µM	Cc1ccc(OCC(O)Cn2c(=N)n(CCN3CCCCC3)c3ccccc32)cc1 (stereo not given)
3.03 µM	CCOc1cccc2cc(-c3cn4cc(C)ccc4n3)c(=O)oc12
11.7 µM (inactive)	Cc1ccccc1-c1nc(CN2CCCC(C(=O)NCCCN3CCOCC3)C2)c(C)o1 (stereo not given)
2.85 µM	CCN(CC)CCCNC(=O)c1cc2c(-c3ccc(Cl)cc3)nn(C)c2s1
29.2 µM (inactive)	COc1ccc(CCn2c(=N)c(C(=O)NCc3ccco3)cc3c(=O)n4ccccc4nc32)cc1
0.0873 µM	Cc1ccc(Nc2cc(=O)n(C3CCCCC3)c(=O)[nH]2)cc1C
16.2 µM (inactive)	CC1CCCCN1CCNC(=O)c1ccc2c(=O)n(CCc3ccccc3)c(=O)[nH]c2c1 (stereo not given)
5.47 µM	Cc1ccccc1-c1nc(CN2CCC(C(=O)NCCCN3CCOCC3)CC2)c(C)o1
10.3 µM (inactive)	COc1ccc(-c2noc(-c3cc(Cl)ccc3Cl)n2)cc1OC
6.46 µM	CCN1CCN(CCNC(=O)C2CCN(Cc3nc(-c4ccc(Cl)cc4)oc3C)CC2)CC1
1.46 µM	CN(C)CCCN1c2ccccc2CCc2ccc(Cl)cc21
1.51 µM	CCN1CCCC1CNC(=O)c1cc2c(-c3ccc(Cl)cc3)nn(C)c2s1 (stereo not given)
8.34 µM	COc1cc2nc(N3CCN(C(=O)C4COc5ccccc5O4)CC3)nc(N)c2cc1OC (stereo not given)
1.81 µM	Cc1oc(-c2ccc(Cl)cc2)nc1CN1CCC(C(=O)N2CCN(Cc3ccccc3)CC2)CC1
1.27 µM	Cc1ccccc1-c1nc(CN2CCC(C(=O)NCCCN3CC(C)CC(C)C3)CC2)c(C)o1 (stereo not given)
